Measurements as given in patent US5885988A, “Benzo[g]quinoline derivatives” (Novartis AG, priority 1995, dated 1999).

How the values were obtained:
[1] = Matched Pairs Situation test; format: in vivo, mice; conditions: for potency compared with the compound of example 1: Matched Pairs Situation test and intruder mouse test, 3-30 mg/kg s.c. versus 1-10 mg/kg s.c.
Source text: Furthermore at said doses the compounds of the invention reduce aggressive behavior (attacks, chases, bites) in the Matched Pairs Situation test in mice [Dixon et al., J. Clin. Psychiatry 55: (9) [Suppl. B] 4-7 (1994)]. […] They are therefore indicated for the treatment of affective disorders including bipolar disorders e.g. manic-depressive psychoses, extreme psychotic states e.g. mania, schizophrenia, and excessive mood swings where behavioral stabilization is desired. In addition, the compounds are indicated in anxiety states, generalized anxiety as well as social and agoraphobia, as well as those behavioural states characterized by social withdrawal e.g. negative symptoms.
(§1) For all the above indications the preferred compound is [3R,4aR,10aR]-1,2,3,4,4a,5,10, 10a-octahydro-6-methoxy-1 -methyl-benzo[g]quinoline-3-carboxylic acid 4-(4-nitro-phenyl)-piperazine amide, which is the compound of example 1.

rat sst1 receptors = rat sst1 receptors (Rattus norvegicus, UniProt P28646); experiment: radioligand binding, rat sst1 receptors; conditions: read-out: affinity for rat sst1 receptors, pIC50 (converted)
Source text: (§2) In particular the agents of the invention bind to somatostatin receptors.
as §1

[2] = molecular target: T1, recombinant human sst1 receptors (Homo sapiens, UniProt P30872); experiment: radioligand binding, recombinant human sst1 receptors; conditions: read-out: affinity for recombinant human sst1 receptors, pIC50 (converted)
T1 construct: expressed in transfected cells
Source text: as §2, §1

[3] = test system: neurotransmitter receptors; experiment: activity at a wide range of neurotransmitter receptors; format: binding
Source text: as §1

intruder mouse test = format: in vivo; conditions: for social withdrawal in the intruder mouse test, standard anti-manic drugs: 3-30 mg/kg s.c.
Source text: as §1

T1 sequence (P30872 whole entry): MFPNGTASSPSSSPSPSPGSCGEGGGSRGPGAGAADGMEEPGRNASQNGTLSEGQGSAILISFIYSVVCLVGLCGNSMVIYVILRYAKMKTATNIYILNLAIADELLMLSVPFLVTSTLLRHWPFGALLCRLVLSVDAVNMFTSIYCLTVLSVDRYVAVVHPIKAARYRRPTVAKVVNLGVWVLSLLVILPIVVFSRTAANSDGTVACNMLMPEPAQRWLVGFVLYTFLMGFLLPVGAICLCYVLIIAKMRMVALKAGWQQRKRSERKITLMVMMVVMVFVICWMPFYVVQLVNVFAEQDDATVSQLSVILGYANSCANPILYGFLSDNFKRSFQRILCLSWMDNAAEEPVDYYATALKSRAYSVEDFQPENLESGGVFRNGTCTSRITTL
Chain of rat sst1 receptors (P28646 whole entry): as the sequence (P30872 whole entry) above, with S8P, S11T, P16S, S20G, G25V, G26C, A32S, A45S, T385A, T389S counted along it

SMILES | aggressive behavior in the Matched Pairs Situation test ([1]; 1-10 mg/kg s.c.) | IC50 (rat sst1 receptors) | IC50 [2] | activity for a wide range of neurotransmitter receptors [3] | social withdrawal in the intruder mouse test (intruder mouse test; 1-10 mg/kg s.c.) | potency compared with the compound of example 1 [1] | social withdrawal in the intruder mouse test, standard anti-manic drugs (intruder mouse test)
COc1cccc2c1C[C@H]1C[C@@H](C(=O)N3CCN(c4ccc([N+](=O)[O-])cc4)CC3)CN(C)[C@@H]1C2 [Example 1, [3R,4aR,10aR]-1,2,3,4,4a ,5,10,10a-octahydro-6-methoxy-1-methyl-benzo[g]quinoline-3-carboxylic acid 4-(4-nitro-phenyl)-piperazine amide] | clearly lowers aggressive behavior | 0.794 nM | 20 nM | without significant activity | reverses social withdrawal | – | –
NC(=O)N1c2ccccc2C=Cc2ccccc21 [carbamazepine] | – | – | – | – | – | less potent | These effects are also observed
[Li] [lithium] | – | – | – | – | – | less potent | These effects are also observed
